Experimental findings from US8063048B2, “Acetylenyl-pyrazolo-pyrimidine derivatives” (Hoffmann-La Roche Inc., priority 2005, dated 2011) are described below.

A word on the melting point: it is the temperature, or range, at which the solid turns liquid. With `CC(C)(CO)NS(=O)(=O)c1cncc(C#Cc2cnn3c(C(F)(F)F)cc(-c4ccc(C(F)(F)F)cc4)nc23)c1` [Example 11, 5-[7-Trifluoromethyl-5-(4-trifluoromethyl-phenyl)-pyrazolo[1,5-a]pyrimidin-3-ylethynyl]-pyridine-3-sulfonic acid (2-hydroxy-1,1-dimethyl-ethyl)-amide], the melting point lay in the range of 226 to 227 °C.
With `Cc1cc(-c2cc(C(F)F)n3ncc(C#Cc4ccc(S(N)(=O)=O)s4)c3n2)ccc1Cl` [Example 172, 5-[5-(4-Chloro-3-methyl-phenyl)-7-difluoromethyl-pyrazolo[1,5-a]pyrimidin-3-ylethynyl]-thiophene-2-sulfonic acid amide], the melting point is 216 °C.
`NS(=O)(=O)c1cc(C#Cc2cnn3c(C4CC4)cc(-c4ccc(Cl)cc4)nc23)c(F)cc1F` [Example 70, 5-[5-(4-Chloro-phenyl)-7-cyclopropyl-pyrazolo[1,5-a]pyrimidin-3-ylethynyl]-2,4-difluoro-benzenesulfonamide]: the melting point is 272 to 275 °C.
The same measure for `Cc1cc(-c2ccc(C(F)(F)F)cc2)cn2c(C#Cc3cncc(S(=O)(=O)NC(C)(C)CO)c3)cnc12` [Example 228, 5-[8-Methyl-6-(4-trifluoromethyl-phenyl)-imidazo[1,2-a]pyridin-3-ylethynyl]-pyridine-3-sulfonic acid (2-hydroxy-1,1-dimethyl-ethyl)-amide]: 189 °C; for `COCCNS(=O)(=O)c1ccc(C#Cc2cnn3c(C(F)(F)F)cc(-c4ccc(C(F)(F)F)cc4)nc23)cc1` [Example 124, N-(2-Methoxy-ethyl)-4-[7-trifluoromethyl-5-(4-trifluoromethyl-phenyl)-pyrazolo[1,5-a]pyrimidin-3-ylethynyl]-benzenesulfonamide]: 185 to 187 °C; for `Cc1cc(-c2ccc(Cl)cc2)cn2c(C#Cc3cnc(N)nc3)cnc12` [Example 221, 5-[6-(4-Chloro-phenyl)-8-methyl-imidazo[1,2-a]pyridin-3-ylethynyl]-pyrimidin-2-ylamine]: 263 °C.
With `NS(=O)(=O)c1ccc(C#Cc2cnn3c(CO)cc(-c4ccc(Cl)cc4)nc23)cc1` [Example 155, 4-[5-(4-Chloro-phenyl)-7-hydroxymethyl-pyrazolo[1,5-a]pyrimidin-3-ylethynyl]-benzenesulfonamide] the figure was 238 to 240 °C; with `NS(=O)(=O)c1ccc(C#Cc2cnn3c(C(F)(F)F)cc(-c4ccc(Cl)c(Cl)c4)nc23)s1` [Example 89, 5-[5-(3,4-Dichloro-phenyl)-7-trifluoromethyl-pyrazolo[1,5-a]pyrimidin-3-ylethynyl]-thiophene-2-sulfonic acid amide], 231 to 232 °C.
On to `Nc1ncc(C#Cc2cnn3c(C4CC4)cc(-c4ccc(Cl)cc4)nc23)cn1` [Example 313, 5-[5-(4-Chloro-phenyl)-7-cyclopropyl-pyrazolo[1,5-a]pyrimidin-3-ylethynyl]-pyrimidin-2-ylamine], for which the melting point was in the range of 243 to 246 °C.
With `NS(=O)(=O)c1cnc(C#Cc2cnn3c(C(F)(F)F)cc(-c4cccc(C(F)(F)F)c4)nc23)s1` [Example 105, 2-[7-Trifluoromethyl-5-(3-trifluoromethyl-phenyl)-pyrazolo[1,5-a]pyrimidin-3-ylethynyl]-thiazole-5-sulfonic acid amide] the figure was 251 °C; with `NS(=O)(=O)c1ccc(C#Cc2cnn3c(CO)cc(-c4ccc(Cl)cc4)nc23)s1` [Example 156, 5-[5-(4-Chloro-phenyl)-7-hydroxymethyl-pyrazolo[1,5-a]pyrimidin-3-ylethynyl]-thiophene-2-sulfonic acid amide], 194 to 196 °C; with `COc1ccc(C#Cc2cnn3c(C(F)(F)F)cc(-c4ccc(C(F)(F)F)cc4)nc23)cn1` [Example 56, 3-(6-Methoxy-pyridin-3-ylethynyl)-7-trifluoromethyl-5-(4-trifluoromethyl-phenyl)-pyrazolo[1,5-a]pyrimidine], 166 to 168 °C.
Consider `NS(=O)(=O)c1ccc(C#Cc2cnn3ccc(-c4ccc(C(F)(F)F)cc4)nc23)s1` [Example 311, 5-[5-(4-Trifluoromethyl-phenyl)-pyrazolo[1,5-a]pyrimidin-3-ylethynyl]-thiophene-2-sulfonic acid amide], for which the melting point was in the range of 224 to 226 °C.
With `CC(C)(CO)NS(=O)(=O)c1cccc(C#Cc2cnn3c(C(F)(F)F)cc(-c4ccc(Cl)cc4)nc23)c1` [Example 95, 3-[5-(4-Chloro-phenyl)-7-trifluoromethyl-pyrazolo[1,5-a]pyrimidin-3-ylethynyl]-N-(2-hydroxy-1,1-dimethyl-ethyl)-benzenesulfonamide] the figure was 226 to 229 °C; with `O=S(=O)(NC(CO)CO)c1ccc(C#Cc2cnn3c(C(F)(F)F)cc(-c4cccc(C(F)(F)F)c4)nc23)s1` [Example 271, 5-[7-Trifluoromethyl-5-(3-trifluoromethyl-phenyl)-pyrazolo[1,5-a]pyrimidin-3-ylethynyl]-thiophene-2-sulfonic acid (2-hydroxy-1-hydroxymethyl-ethyl)-amide], 210 °C.
With `NS(=O)(=O)c1ccc(C#Cc2cnn3c(C(F)(F)F)cc(-c4ccc(C(F)(F)F)cc4)nc23)cc1` [Example 36, 4-[7-Trifluoromethyl-5-(4-trifluoromethyl-phenyl)-pyrazolo[1,5-a]pyrimidin-3-ylethynyl]-benzenesulfonamide] the figure was 266 to 267 °C.
With `CN1CCN(S(=O)(=O)c2ccc(C#Cc3cnn4c(C(F)(F)F)cc(-c5cccc(C(F)(F)F)c5)nc34)s2)CC1` [Example 249, 3-[5-(4-Methyl-piperazine-1-sulfonyl)-thiophen-2-ylethynyl]-7-trifluoromethyl-5-(3-trifluoromethyl-phenyl)-pyrazolo[1,5-a]pyrimidine] the figure was 191 °C.
As for `CC(C)(C)NS(=O)(=O)c1cncc(C#Cc2cnn3c(C(F)(F)F)cc(-c4ccc(C(F)(F)F)cc4)nc23)c1` [Example 17, 5-[7-Trifluoromethyl-5-(4-trifluoromethyl-phenyl)-pyrazolo[1,5-a]pyrimidin-3-ylethynyl]-pyridine-3-sulfonic acid tert-butylamide], the melting point turned out to be 224 °C.
`FC(F)(F)c1ccc(-c2cc(C(F)(F)F)n3ncc(C#Cc4ccccn4)c3n2)cc1` [Example 6, 3-Pyridin-2-ylethynyl-7-trifluoromethyl-5-(4-trifluoromethyl-phenyl)-pyrazolo[1,5-a]pyrimidine] registered a melting point of 158 to 159 °C.
With `O=S(=O)(NC(CO)CO)c1ccc(C#Cc2cnn3c(C(F)F)cc(-c4ccc(C(F)(F)F)cc4)nc23)s1` [Example 270, 5-[7-Difluoromethyl-5-(4-trifluoromethyl-phenyl)-pyrazolo[1,5-a]pyrimidin-3-ylethynyl]-thiophene-2-sulfonic acid (2-hydroxy-1-hydroxymethyl-ethyl)-amide] the figure was 152 °C.
As to `O=S(=O)(NCc1cccnc1)c1ccc(C#Cc2cnn3c(C(F)F)cc(-c4ccc(C(F)(F)F)cc4)nc23)s1` [Example 278, 5-[7-Difluoromethyl-5-(4-trifluoromethyl-phenyl)-pyrazolo[1,5-a]pyrimidin-3-ylethynyl]-thiophene-2-sulfonic acid (pyridin-3-ylmethyl)-amide], the melting point stood at 152 °C.
`Cc1cc(-c2ccc(Cl)cc2)cn2c(C#Cc3cncc(S(=O)(=O)NC(C)(C)CO)c3)cnc12` [Example 230, 5-[6-(4-Chloro-phenyl)-8-methyl-imidazo[1,2-a]pyridin-3-ylethynyl]-pyridine-3-sulfonic acid (2-hydroxy-1,1-dimethyl-ethyl)-amide] yielded a melting point of 215 to 217 °C.
On to `CCOc1cccc(-c2cc(C(F)F)n3ncc(C#Cc4ccc(S(N)(=O)=O)cc4)c3n2)c1` [Example 187, 4-[7-Difluoromethyl-5-(3-ethoxy-phenyl)-pyrazolo[1,5-a]pyrimidin-3-ylethynyl]-benzenesulfonamide], for which the melting point was found to be 245 °C.
The same measure for `Nc1ncc(C#Cc2cnc3c(C(F)(F)F)cc(-c4ccc(C(F)(F)F)cc4)nn23)cn1` [Example 243, 5-[8-Trifluoromethyl-6-(4-trifluoromethyl-phenyl)-imidazo[1,2-b]pyridazin-3-ylethynyl]-pyrimidin-2-ylamine]: 220 to 221 °C.
With `CC(O)c1ccc(C#Cc2cnn3c(C(F)(F)F)cc(-c4ccc(C(F)(F)F)cc4)nc23)cc1` (stereo not drawn) [Example 52, 1-{4-[7-Trifluoromethyl-5-(4-trifluoromethyl-phenyl)-pyrazolo[1,5-a]pyrimidin-3-ylethynyl]-phenyl}-ethanol], the melting point lay in the range of 175 to 178 °C.
With `Oc1cncc(C#Cc2cnn3c(C(F)(F)F)cc(-c4ccc(C(F)(F)F)cc4)nc23)c1` [Example 58, 5-[7-Trifluoromethyl-5-(4-trifluoromethyl-phenyl)-pyrazolo[1,5-a]pyrimidin-3-ylethynyl]-pyridin-3-ol] the figure was 258 to 260 °C; with `CN(C)S(=O)(=O)c1ccc(C#Cc2cnn3c(C(F)(F)F)cc(-c4ccc(C(F)(F)F)cc4)nc23)cc1` [Example 121, N,N-Dimethyl-4-[7-trifluoromethyl-5-(4-trifluoromethyl-phenyl)-pyrazolo[1,5-a]pyrimidin-3-ylethynyl]-benzenesulfonamide], 226 to 227 °C.
Take `Cc1cc(-c2ccc(Cl)cc2)cn2c(C#Cc3ccc(N)nc3)cnc12` [Example 210, 5-[6-(4-Chloro-phenyl)-8-methyl-imidazo[1,2-a]pyridin-3-ylethynyl]-pyridin-2-ylamine]: the melting point is 231 to 234 °C.
In the case of `CN(C)CCNS(=O)(=O)c1ccc(C#Cc2cnn3c(C(F)F)cc(-c4ccc(C(F)(F)F)cc4)nc23)cc1` [Example 141, 4-[7-Difluoromethyl-5-(4-trifluoromethyl-phenyl)-pyrazolo[1,5-a]pyrimidin-3-ylethynyl]-N-(2-dimethylamino-ethyl)-benzenesulfonamide], the melting point fell in the range of 157 to 159 °C.
`Nc1ncc(C#Cc2cnc3c(F)cc(-c4ccc(Cl)cc4)cn23)cn1` [Example 242, 5-[6-(4-Chloro-phenyl)-8-fluoro-imidazo[1,2-a]pyridin-3-ylethynyl]-pyrimidin-2-ylamine]: the melting point was 279 to 280 °C.
